Assay results reported in ChEMBL document CHEMBL1201862, “PubChem BioAssay data set” (2004).
The source made the active and inactive calls.

How the values were obtained:
[1] = target: Troponin, cardiac muscle (Homo sapiens, UniProt P19429+P45379+P63316); assay: Fluorescence-based biochemical high throughput dose response assay for activators of the calcium sensitivity of cardiac Regulated Thin Filaments (RTF). [Related pubchem assays (depositor defined):AID493008, AID493018, AID504382, AID504383]; format: protein-complex assay
[2] = target: T1, SUMO-activating enzyme (Homo sapiens, UniProt Q9UBT2); assay: blockers of UBC9-mediated SUMO conjugation – biochemical, AlphaScreen, SUMOylation inhibitor project, confirmation (AID 2018); format: functional
[3] = target: T1, SUMO-activating enzyme; assay: blockers of SAE1/SAE2–UBC9 SUMO transfer – biochemical, HTRF, uHTS, primary screen (AID 2006); format: protein-complex assay
[4] = Luminescence Cell-Based Dose Retest to Confirm Inhibitors of Cancer Stem Cells. [Related pubchem assays (depositor defined):AID2717, AID2721]; format: functional, Homo sapiens
[5] = target: T2, Coagulation factor XII (Homo sapiens, UniProt P00748); format: functional;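 note: activated factor XIIa alpha cleaving a fluorogenic AMC peptide substrate; inhibitor potency from loss of enzyme activity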
T2 sequence (P00748 whole entry): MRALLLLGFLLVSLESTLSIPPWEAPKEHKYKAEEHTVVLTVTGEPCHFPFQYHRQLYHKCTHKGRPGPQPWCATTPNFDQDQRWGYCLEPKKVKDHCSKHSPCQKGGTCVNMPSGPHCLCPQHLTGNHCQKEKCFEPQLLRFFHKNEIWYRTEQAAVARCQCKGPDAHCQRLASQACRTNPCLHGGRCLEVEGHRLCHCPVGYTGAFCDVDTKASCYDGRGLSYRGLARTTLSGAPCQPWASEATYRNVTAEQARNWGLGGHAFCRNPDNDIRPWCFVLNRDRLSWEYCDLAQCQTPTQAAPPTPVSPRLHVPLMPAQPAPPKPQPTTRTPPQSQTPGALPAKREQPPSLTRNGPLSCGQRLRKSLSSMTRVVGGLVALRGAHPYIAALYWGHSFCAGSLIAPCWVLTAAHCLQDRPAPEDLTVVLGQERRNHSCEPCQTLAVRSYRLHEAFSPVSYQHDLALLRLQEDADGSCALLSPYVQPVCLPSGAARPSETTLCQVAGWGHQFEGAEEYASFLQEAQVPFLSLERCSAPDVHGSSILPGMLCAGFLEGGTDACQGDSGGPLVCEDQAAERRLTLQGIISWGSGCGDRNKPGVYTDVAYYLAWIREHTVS

[6] = target: T3, Calpain-2 catalytic subunit (Sus scrofa, UniProt P43367); assay: m-calpain protease blockers, concentration series – biochemical, fluorogenic peptide substrate, dose response (AID 1420); format: functional
T3 sequence (P43367 whole entry): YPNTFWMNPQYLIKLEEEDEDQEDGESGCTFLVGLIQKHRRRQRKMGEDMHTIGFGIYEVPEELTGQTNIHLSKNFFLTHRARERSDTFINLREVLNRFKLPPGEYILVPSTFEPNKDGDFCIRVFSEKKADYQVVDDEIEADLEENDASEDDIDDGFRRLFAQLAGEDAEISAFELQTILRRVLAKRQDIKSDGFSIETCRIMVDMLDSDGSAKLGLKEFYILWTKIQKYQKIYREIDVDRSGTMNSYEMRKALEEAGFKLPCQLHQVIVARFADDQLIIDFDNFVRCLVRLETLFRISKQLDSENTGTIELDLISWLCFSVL

[7] = target: G-protein coupled receptor 55 (Homo sapiens, UniProt Q9Y2T6); assay: inhibition of LPI-stimulated GPR55 beta-arrestin translocation – imaging, U2OS, beta-arrestin-GFP, LPI agonist, primary screen (AID 2013); format: functional;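 note: antagonist potency measured as reduced agonist-driven arrestin aggregation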
[8] = target: Prothrombin (Homo sapiens, UniProt P00734); assay: Thrombin 1536 HTS Dose Response Confirmation. [Related pubchem assays: 1046 (Thrombin 1536 HTS; hits were confirmed in this assay)]; format: functional
[9] = system: H4; assay: Luminescence Cell-Based Dose Response HTS to Identify Activators of 5'UTR Stem-Loop Driven Prion Protein mRNA Translation in H4 Neuroglioblastoma Cells. [Related pubchem assays: 1829 (Project Summary), 1814 (Primary HTS)]; format: functional; conditions: Homo sapiens
[10] = Luminescence Cell-Based Dose Response HTS to Identify Activators of Luciferase Translation or Activity in H4 […] Cells. [Related pubchem assays: 1829 (Project Summary), 1814 (Primary HTS)]; format: functional
[11] = system: INS1; assay: INS-1E survival protection against cytokine death – cell-based, luminescence, retest, dose response (AID 449756); format: functional; conditions: Rattus norvegicus;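 note: cell death triggered by IL-1 beta plus TNF-alpha plus IFN-gamma mixture; protective hits raise ATP signal compared with cytokine alone wells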
[12] = target: DNA damage-inducible transcript 3 protein (Mus musculus, UniProt P35639); format: functional, Cricetulus griseus
[13] = viability of PTEN-deleted HCT116 cells – cell-based, HCT116 PTEN knockout, dose response (AID 1047); format: functional;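 note: HCT116 colon tumor cells with PTEN knocked out; cells exposed to compound for 60 hours before readout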
[14] = system: CHO; assay: CHO cell viability loss, potency – luminescence, cytotoxicity control for TLR9-MyD88 binding inhibitor project, dose response (AID 588339); format: functional, cell-based, hamster; conditions: Cricetulus griseus;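 note: CHO cells stably coexpressing TLR9 and MyD88 fusions from primary screen; compound exposure lasted 48 hours before viability readout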
[15] = target: Beta Lactamase (Pseudomonas aeruginosa, UniProt Q932Y6); assay: BLA reporter interference, concentration series – BLA reporter cells, FRET fluorescence, artefact control for TLR9-MyD88 binding inhibitor project, dose response (AID 588341); format: cell-based;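 note: cell based assay in CHO-K1 cells stably expressing beta-lactamase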
[16] = viability of HCT116 lacking mutant beta-catenin – cell-based, human colon tumor, dose response (AID 1045); format: functional;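 note: HCT116 colon tumor cells with beta catenin knocked out; cells exposed to compound for 60 hours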
[17] = target: Nucleotide-binding oligomerization domain-containing protein 2 (Homo sapiens, UniProt Q9HC29); assay: inhibition of NOD2-driven NF-kB reporter – cell-based, luminescence, uHTS, HEK293 (AID 1566); format: functional
[18] = target: Tumor necrosis factor (Homo sapiens, UniProt P01375); assay: analog potency on TNFa NF-kB signaling – cell-based, revised, SAR follow-up (AID 2337); format: functional
[19] = target: T4, Nucleotide-binding oligomerization domain-containing protein 1 (Homo sapiens, UniProt Q9Y239); assay: blockers of NOD1 pathway activity – revised, SAR follow-up (AID 2333); format: functional
T4 sequence (Q9Y239 whole entry): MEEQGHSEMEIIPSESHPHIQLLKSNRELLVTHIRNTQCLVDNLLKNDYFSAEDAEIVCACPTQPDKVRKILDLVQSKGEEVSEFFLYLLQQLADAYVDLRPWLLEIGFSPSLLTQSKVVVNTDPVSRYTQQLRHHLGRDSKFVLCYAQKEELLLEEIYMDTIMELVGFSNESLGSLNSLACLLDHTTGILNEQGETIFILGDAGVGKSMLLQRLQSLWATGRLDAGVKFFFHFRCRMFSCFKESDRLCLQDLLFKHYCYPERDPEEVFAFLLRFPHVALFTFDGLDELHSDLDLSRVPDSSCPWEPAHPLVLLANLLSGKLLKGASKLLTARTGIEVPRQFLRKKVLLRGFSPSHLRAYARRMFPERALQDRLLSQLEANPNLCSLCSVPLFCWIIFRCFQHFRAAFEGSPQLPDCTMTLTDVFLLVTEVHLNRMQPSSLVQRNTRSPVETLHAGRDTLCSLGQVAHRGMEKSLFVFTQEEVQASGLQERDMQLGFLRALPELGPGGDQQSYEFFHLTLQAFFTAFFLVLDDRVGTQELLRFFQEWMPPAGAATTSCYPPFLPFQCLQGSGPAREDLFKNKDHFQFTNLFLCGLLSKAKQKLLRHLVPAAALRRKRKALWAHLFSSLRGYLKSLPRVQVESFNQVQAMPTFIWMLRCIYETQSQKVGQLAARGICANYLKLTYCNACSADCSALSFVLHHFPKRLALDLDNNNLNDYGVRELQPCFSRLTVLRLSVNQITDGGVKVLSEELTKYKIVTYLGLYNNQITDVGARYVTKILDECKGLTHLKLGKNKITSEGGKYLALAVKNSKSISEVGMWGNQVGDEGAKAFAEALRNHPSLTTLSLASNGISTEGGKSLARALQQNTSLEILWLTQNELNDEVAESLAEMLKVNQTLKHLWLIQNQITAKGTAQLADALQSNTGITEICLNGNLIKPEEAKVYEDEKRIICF

[20] = target: Dual specificity protein phosphatase 3 (Homo sapiens, UniProt P51452); assay: VHR phosphatase inhibition, dose response, selectivity assay for STEP inhibitor project, biochemical (AID 602374); format: functional; conditions: read-out: IC50_Mean
[21] = target: Prothrombin (Bos taurus, UniProt P00735); assay: thrombin protease inhibitors – biochemical, fluorescence polarization, uHTS hits, dose response (AID 602369); format: functional
[22] = target: T5, Tyrosine-protein phosphatase non-receptor type 11 (Homo sapiens, UniProt Q06124); assay: PTPN11 enzyme inhibitors – biochemical, selectivity assay for STEP inhibitor project, dose response (AID 602367); format: functional; conditions: read-out: IC50_Mean
T5 sequence (Q06124 whole entry): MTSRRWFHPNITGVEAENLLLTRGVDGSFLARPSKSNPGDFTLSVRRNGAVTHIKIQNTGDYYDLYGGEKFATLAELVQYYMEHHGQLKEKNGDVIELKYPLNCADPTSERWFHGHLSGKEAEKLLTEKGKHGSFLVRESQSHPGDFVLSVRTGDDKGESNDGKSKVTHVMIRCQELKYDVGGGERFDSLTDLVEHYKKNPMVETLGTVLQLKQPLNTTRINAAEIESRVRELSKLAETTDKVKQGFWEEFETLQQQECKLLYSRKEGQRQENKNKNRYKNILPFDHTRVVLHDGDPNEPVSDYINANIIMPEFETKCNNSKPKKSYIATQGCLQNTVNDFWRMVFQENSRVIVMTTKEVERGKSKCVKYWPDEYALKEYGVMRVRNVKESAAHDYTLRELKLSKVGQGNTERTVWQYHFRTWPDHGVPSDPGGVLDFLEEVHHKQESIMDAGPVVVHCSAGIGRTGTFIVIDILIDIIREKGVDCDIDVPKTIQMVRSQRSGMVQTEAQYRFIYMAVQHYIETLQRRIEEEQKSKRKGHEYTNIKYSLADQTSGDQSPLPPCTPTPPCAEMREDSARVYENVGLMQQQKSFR

[23] = target: T6, Small ubiquitin-related modifier 1 (Homo sapiens, UniProt P63165); assay: SUMO1 protein interaction blockers, potency – biochemical, fluorescence polarization, uHTS hits, dose response (AID 624382); format: functional; conditions: read-out: IC50_Mean
[24] = target: 72 kDa type IV collagenase (Homo sapiens, UniProt P08253); assay: Dose Response validation of uHTS RPN11 inhibitor hits using a MMP-2 Fluorescence assay.; format: functional
[25] = target: T6, Small ubiquitin-related modifier 1; assay: SUMO1 protein-protein binding blockers, potency – biochemical, FRET, dose response (AID 624383); format: functional; conditions: read-out: IC50_Mean
[26] = target: T7, Tyrosine-protein phosphatase non-receptor type 5 (Homo sapiens, UniProt P54829); assay: PTPN5 enzyme inhibition – biochemical, fluorescence intensity, uHTS hits, confirmation (AID 602372); format: functional; conditions: read-out: IC50_Mean
T7 sequence (P54829 whole entry): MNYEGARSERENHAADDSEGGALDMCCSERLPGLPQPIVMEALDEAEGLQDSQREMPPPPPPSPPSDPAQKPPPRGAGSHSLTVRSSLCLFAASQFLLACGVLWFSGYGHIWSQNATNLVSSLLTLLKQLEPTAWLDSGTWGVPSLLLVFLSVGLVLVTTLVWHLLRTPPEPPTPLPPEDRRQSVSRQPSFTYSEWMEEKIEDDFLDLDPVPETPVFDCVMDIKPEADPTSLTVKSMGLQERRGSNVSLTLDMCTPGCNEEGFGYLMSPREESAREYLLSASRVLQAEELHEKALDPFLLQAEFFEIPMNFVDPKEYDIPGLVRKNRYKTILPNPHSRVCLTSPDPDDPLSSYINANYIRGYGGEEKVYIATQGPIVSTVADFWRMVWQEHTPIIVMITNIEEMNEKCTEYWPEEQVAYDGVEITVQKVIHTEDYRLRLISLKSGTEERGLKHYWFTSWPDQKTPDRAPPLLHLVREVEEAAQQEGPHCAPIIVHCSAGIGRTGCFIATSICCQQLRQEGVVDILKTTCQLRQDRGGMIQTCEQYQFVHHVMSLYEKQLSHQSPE

[27] = target: 26S proteasome non-ATPase regulatory subunit 14 (Homo sapiens, UniProt O00487); assay: inhibition of proteasome subunit RPN11 – biochemical, fluorescence polarization, uHTS hits, confirmation (AID 602368); format: functional

CC(=O)Oc1ccc(NC(=O)Cc2ccccc2)c(C(=O)O)c1
EC50 [1]: > 71.5 µM (inactive)

C=C(C)[C@@H]1CC[C@]2(C(=O)O)CC[C@]3(C)[C@H](CC[C@@H]4[C@@]5(C)CC[C@H](O)C(C)(C)[C@@H]5CC[C@]43C)[C@@H]12 [BETULINIC ACID]
IC50 [2]: 13.2 µM (active) | IC50 [3]: 9.24 µM (active) | AC50 [4]: 1.94 µM (active) | AC50 ([4]; Homo sapiens): 3.05 µM (active)

O=C1N=C(Nc2ccccc2)S/C1=C/c1cccs1
IC50 [5]: > 50 µM (inactive) | IC50 [6]: > 50 µM (not active)

N=c1c2c(ncn1Cc1ccco1)Oc1cc(O)ccc1C2c1ccccc1 (stereo not drawn)
IC50 [7]: 1.2 µM (active) | EC50 [1]: > 71.4 µM (inactive)

O=C(NNC1=NCCCCC1)Nc1cccc(Cl)c1
IC50 [5]: > 50 µM (inactive) | IC50 [8]: 7.74 µM (active) | EC50 [9]: 0.242 µM (active) | EC50 [10]: 0.409 µM (active)

Cc1ccccc1NC(=O)/C=C/c1ccc([N+](=O)[O-])s1
AC50 [11]: 6.17 µM (active) | Absolute IC50 (CHOP) [12]: 10 µM | EC50 [13]: 1.6 µM (active) | IC50 [14]: 2.22 µM (active) | IC50 [15]: 13.7 µM (inactive) | EC50 [16]: 1.16 µM (active)

Cc1oc(-c2ccccc2Cl)nc1CSc1nc2c(c(=O)[nH]1)CCCC2
EC50 [17]: 0.73 µM (active) | IC50 [18]: 3.09 µM (active) | IC50 [19]: 5.75 µM (active)

O=Cc1cn(-c2ccccc2)nc1-c1cc2cc(O)ccc2oc1=O
IC50 [20]: 3.02 µM (active) | IC50 [21]: 35.5 µM (active) | IC50 [22]: 1.96 µM (active) | IC50 [2]: 11.4 µM (active) | IC50 [3]: 18.1 µM (active) | IC50 [23]: > 66.6 µM (inactive) | IC50 [24]: > 100 µM (inactive) | IC50 [25]: 7.28 µM (active) | IC50 [26]: 27.5 µM (inactive) | IC50 [27]: 19.4 µM (active)

Clc1ccc2[nH]c(-c3ccccc3)cc2c1
Absolute IC50 (CHOP) [12]: 10 µM
